Test system: MV-4-11 cells
Assay: Gene expression microarray analysis (Affymetrix PrimeView) and GSEA
Format: cell-based, human
Parameters: RFU PODN (11730768_x_at) / Fold change /veh PODN (11730768_x_at) / RFU LINC00158 (11744669_a_at) / Fold change /veh LINC00158 (11744669_a_at) / RFU DUSP10 (11751237_a_at) / Fold change /veh DUSP10 (11751237_a_at) / RFU ID3 (11757404_x_at) / Fold change /veh ID3 (11757404_x_at) / RFU PLEKHG5 (11737974_s_at) / Fold change /veh PLEKHG5 (11737974_s_at) / RFU LRRC4B (11730491_at) / Fold change /veh LRRC4B (11730491_at) / RFU GIMAP4 (11747438_a_at) / Fold change /veh GIMAP4 (11747438_a_at) / RFU KRT8 (11758183_x_at) / Fold change /veh KRT8 (11758183_x_at) / RFU CNN1 (11734310_a_at) / Fold change /veh CNN1 (11734310_a_at) / RFU VPS37D (11726825_at) / Fold change /veh VPS37D (11726825_at) / RFU C10orf10 (11716522_x_at) / Fold change /veh C10orf10 (11716522_x_at) / RFU KIR2DL2 /// KIR2DL4 /// KIR2DL5A /// KIR2DL5B /// KIR2DS1 /// KIR2DS2 /// KIR2DS3 /// KIR2DS4 /// KIR3DL3 /// KIR3DL3 /// KIR3DS1 (11738374_at) / Fold change /veh KIR2DL2 /// KIR2DL4 /// KIR2DL5A /// KIR2DL5B /// KIR2DS1 /// KIR2DS2 /// KIR2DS3 /// KIR2DS4 /// KIR3DL3 /// KIR3DL3 /// KIR3DS1 (11738374_at) / RFU C1QL1 (11718748_at) / Fold change /veh C1QL1 (11718748_at) / RFU TMPRSS4 (11747572_a_at) / Fold change /veh TMPRSS4 (11747572_a_at) / RFU HAMP (11756126_x_at) / Fold change /veh HAMP (11756126_x_at) / RFU RNFT2 (11725882_a_at) / Fold change /veh RNFT2 (11725882_a_at) / RFU NR4A2 (11747474_a_at) / Fold change /veh NR4A2 (11747474_a_at) / RFU ABCC12 (11746883_a_at) / Fold change /veh ABCC12 (11746883_a_at) / RFU TMEM136 (11760407_x_at) / Fold change /veh TMEM136 (11760407_x_at) / RFU CLDN22 /// WWC2 (11732394_at) / Fold change /veh CLDN22 /// WWC2 (11732394_at) / RFU HLA-DPB1 (11760878_x_at) / Fold change /veh HLA-DPB1 (11760878_x_at) / RFU SPINT1 (11716480_a_at) / Fold change /veh SPINT1 (11716480_a_at) / RFU GAP43 (11754022_s_at) / Fold change /veh GAP43 (11754022_s_at) / RFU A4GNT (11735810_at) / Fold change /veh A4GNT (11735810_at) / RFU PRB3 (11715151_x_at) / Fold change /veh PRB3 (11715151_x_at) / RFU TUBB4B (11761932_at) / Fold change /veh TUBB4B (11761932_at) / RFU CAPN14 (11732068_a_at) / Fold change /veh CAPN14 (11732068_a_at) / RFU TMCC2 (11721928_a_at) / Fold change /veh TMCC2 (11721928_a_at) / RFU IRGQ (11745062_a_at) / Fold change /veh IRGQ (11745062_a_at) / RFU FAM174B (11720279_a_at) / Fold change /veh FAM174B (11720279_a_at) / RFU TMPRSS4 (11748680_a_at) / Fold change /veh TMPRSS4 (11748680_a_at) / RFU FAM212B (11763350_a_at) / Fold change /veh FAM212B (11763350_a_at) / RFU PLEKHG5 (11743358_a_at) / Fold change /veh PLEKHG5 (11743358_a_at) / RFU ZSCAN30 (11745921_a_at) / Fold change /veh ZSCAN30 (11745921_a_at) / RFU CMKLR1 (11741424_a_at) / Fold change /veh CMKLR1 (11741424_a_at) / RFU LOC101060620 /// MAPK8IP1 (11723275_at) / Fold change /veh LOC101060620 /// MAPK8IP1 (11723275_at) / RFU SPTSSB (11747773_x_at) / Fold change /veh SPTSSB (11747773_x_at) / RFU PRSS12 (11739890_at) / Fold change /veh PRSS12 (11739890_at) / RFU BIN1 (11741810_x_at) / Fold change /veh BIN1 (11741810_x_at) / RFU WNT11 (11732464_a_at) / Fold change /veh WNT11 (11732464_a_at) / RFU C10orf10 (11716521_a_at) / Fold change /veh C10orf10 (11716521_a_at) / RFU C5orf56 (11738089_at) / Fold change /veh C5orf56 (11738089_at) / RFU CYB561 (11721691_x_at) / Fold change /veh CYB561 (11721691_x_at) / RFU ANKRD19P (11752326_a_at) / Fold change /veh ANKRD19P (11752326_a_at) / RFU OR2T12 /// OR2T33 /// OR2T8 (11738714_s_at) / Fold change /veh OR2T12 /// OR2T33 /// OR2T8 (11738714_s_at) / RFU VCAN (11748164_a_at) / Fold change /veh VCAN (11748164_a_at) / RFU JSRP1 (11732532_at) / Fold change /veh JSRP1 (11732532_at) / RFU KRTAP10-11 (11738290_x_at) / Fold change /veh KRTAP10-11 (11738290_x_at) / RFU MYO3A (11730013_a_at) / Fold change /veh MYO3A (11730013_a_at) / RFU EBF3 (11725865_a_at) / Fold change /veh EBF3 (11725865_a_at) / RFU CAMK2N1 (11719241_x_at) / Fold change /veh CAMK2N1 (11719241_x_at) / RFU C5orf56 (11738088_a_at) / Fold change /veh C5orf56 (11738088_a_at) / RFU OLFML3 (11715873_a_at) / Fold change /veh OLFML3 (11715873_a_at) / RFU LOC100653217 /// NTM (11731650_a_at) / Fold change /veh LOC100653217 /// NTM (11731650_a_at) / RFU MAPK11 (11762145_a_at) / Fold change /veh MAPK11 (11762145_a_at) / RFU FIZ1 (11724087_x_at) / Fold change /veh FIZ1 (11724087_x_at) / RFU OASL (11726364_x_at) / Fold change /veh OASL (11726364_x_at) / RFU SOX15 (11748057_x_at) / Fold change /veh SOX15 (11748057_x_at) / RFU CD79A (11719716_a_at) / Fold change /veh CD79A (11719716_a_at) / RFU HIST1H1D (11736915_at) / Fold change /veh HIST1H1D (11736915_at) / RFU CASKIN2 (11723855_a_at) / Fold change /veh CASKIN2 (11723855_a_at) / RFU LOC730098 (11760151_x_at) / Fold change /veh LOC730098 (11760151_x_at) / RFU OR4N2 (11742367_at) / Fold change /veh OR4N2 (11742367_at) / RFU PRRT2 (11749266_a_at) / Fold change /veh PRRT2 (11749266_a_at) / RFU SNX32 (11753110_a_at) / Fold change /veh SNX32 (11753110_a_at) / RFU CDHR5 (11726645_a_at) / Fold change /veh CDHR5 (11726645_a_at) / RFU RCAN1 (11760418_a_at) / Fold change /veh RCAN1 (11760418_a_at) / RFU FAM167A (11723789_a_at) / Fold change /veh FAM167A (11723789_a_at) / RFU FAM26E (11764081_at) / Fold change /veh FAM26E (11764081_at) / RFU ISYNA1 (11749810_s_at) / Fold change /veh ISYNA1 (11749810_s_at) / RFU ACY1 (11761880_at) / Fold change /veh ACY1 (11761880_at) / RFU 11764098_at / Fold change /veh 11764098_at / RFU SAMD14 (11745864_x_at) / Fold change /veh SAMD14 (11745864_x_at) / RFU NPB (11741838_a_at) / Fold change /veh NPB (11741838_a_at) / RFU TMPRSS6 (11731388_a_at) / Fold change /veh TMPRSS6 (11731388_a_at) / RFU KRTAP10-2 (11738614_at) / Fold change /veh KRTAP10-2 (11738614_at) / RFU ARHGAP8 /// PRR5-ARHGAP8 (11727945_x_at) / Fold change /veh ARHGAP8 /// PRR5-ARHGAP8 (11727945_x_at) / RFU KRTAP5-7 /// NADSYN1 (11734609_at) / Fold change /veh KRTAP5-7 /// NADSYN1 (11734609_at) / RFU RASL12 (11751679_a_at) / Fold change /veh RASL12 (11751679_a_at) / RFU CDKN2B (11736163_a_at) / Fold change /veh CDKN2B (11736163_a_at) / RFU PRF1 (11729649_at) / Fold change /veh PRF1 (11729649_at) / RFU, ZNF638 /// ZNF638-IT1 / Fold change vs veh, ZNF638 /// ZNF638-IT1 / RFU, PANK3 / Fold change vs veh, PANK3 / RFU, SH3YL1 / Fold change vs veh, SH3YL1 / RFU, ZEB2 / Fold change vs veh, ZEB2 / RFU, NRIP1 / Fold change vs veh, NRIP1 / RFU, PTTG1IP / Fold change vs veh, PTTG1IP / RFU, CAPN2 / Fold change vs veh, CAPN2 / RFU, MED14 / Fold change vs veh, MED14 / RFU, SNORA58 / Fold change vs veh, SNORA58 / RFU, C1orf63 / Fold change vs veh, C1orf63 / RFU, LRRFIP1 / Fold change vs veh, LRRFIP1 / RFU, NDUFAF7 / Fold change vs veh, NDUFAF7 / RFU, SLC12A2 / Fold change vs veh, SLC12A2 / RFU, IBTK / Fold change vs veh, IBTK / RFU, ESF1 / Fold change vs veh, ESF1 / Fold change vs veh, TMEM50B / RFU, TAOK1 / Fold change vs veh, TAOK1 / RFU, ACBD3 / Fold change vs veh, ACBD3 / RFU, TMA16 / Fold change vs veh, TMA16 / RFU, RWDD3 / Fold change vs veh, RWDD3 / RFU, BCAT1 / Fold change vs veh, BCAT1 / RFU, EDEM3 / Fold change vs veh, EDEM3 / RFU, TMEM33 / Fold change vs veh, TMEM33 / RFU, WDR75 / Fold change vs veh, WDR75 / RFU, AHCTF1 / Fold change vs veh, AHCTF1 / RFU, TFRC / Fold change vs veh, TFRC / RFU, ZDHHC17 / Fold change vs veh, ZDHHC17 / RFU, NOM1 / Fold change vs veh, NOM1 / RFU, ARL8B / Fold change vs veh, ARL8B / RFU, ZBTB11 / Fold change vs veh, ZBTB11 / RFU, TAMM41 / Fold change vs veh, TAMM41 / RFU, KIAA1704 /// LOC100996395 / Fold change vs veh, KIAA1704 /// LOC100996395 / RFU, ING1 / Fold change vs veh, ING1 / RFU, TRMT61B / Fold change vs veh, TRMT61B / RFU, FUBP3 / Fold change vs veh, FUBP3 / RFU, TP53 / Fold change vs veh, TP53 / RFU, TNKS2 / Fold change vs veh, TNKS2 / RFU, ZFP14 / Fold change vs veh, ZFP14 / RFU, ACTR2 / Fold change vs veh, ACTR2 / RFU, PPP3R1 / Fold change vs veh, PPP3R1 / RFU, PIK3R1 / Fold change vs veh, PIK3R1 / RFU, HNRNPA1 / Fold change vs veh, HNRNPA1 / RFU, RNF170 / Fold change vs veh, RNF170 / RFU, ZNF28 / Fold change vs veh, ZNF28 / RFU, RNGTT / Fold change vs veh, RNGTT / RFU, OGT / Fold change vs veh, OGT / RFU, BRD1 / Fold change vs veh, BRD1 / RFU, MARS / Fold change vs veh, MARS / RFU, ZNF655 / Fold change vs veh, ZNF655 / RFU, FAHD1 / Fold change vs veh, FAHD1 / RFU, BDP1 / Fold change vs veh, BDP1 / RFU, LRRCC1 / Fold change vs veh, LRRCC1 / RFU, ARID1A / Fold change vs veh, ARID1A / RFU, ZNF146 / Fold change vs veh, ZNF146 / RFU, ZNF330 / Fold change vs veh, ZNF330 / RFU, GPN3 / Fold change vs veh, GPN3 / RFU, C9orf123 / Fold change vs veh, C9orf123 / RFU, N4BP2L2 / Fold change vs veh, N4BP2L2 / RFU, ARFIP1 / Fold change vs veh, ARFIP1 / RFU, FAM179B / Fold change vs veh, FAM179B / RFU, BCL10 / Fold change vs veh, BCL10 / RFU, UHRF1BP1L / Fold change vs veh, UHRF1BP1L / RFU, BET1 / Fold change vs veh, BET1 / RFU, CNOT2 / Fold change vs veh, CNOT2 / RFU, ZNF268 / Fold change vs veh, ZNF268 / Fold change vs veh, ZNF507 / RFU, DGCR2 / Fold change vs veh, DGCR2 / RFU, WDSUB1 / Fold change vs veh, WDSUB1 / Fold change vs veh, HSP90B1 /// MIR3652 / RFU, ADSS / Fold change vs veh, ADSS / RFU, GK / Fold change vs veh, GK / RFU, ZNF148 / Fold change vs veh, ZNF148 / RFU, TAF9 / Fold change vs veh, TAF9 / RFU, SLC1A5 / Fold change vs veh, SLC1A5 / RFU, SLMO2 / Fold change vs veh, SLMO2 / RFU, ABCC4 / Fold change vs veh, ABCC4 / RFU, LOC101060439 /// RAP1B / Fold change vs veh, LOC101060439 /// RAP1B / RFU, RFX7 / Fold change vs veh, RFX7 / RFU, GTPBP10 / Fold change vs veh, GTPBP10 / RFU, CNEP1R1 / Fold change vs veh, CNEP1R1 / RFU, BIVM-ERCC5 /// ERCC5 / Fold change vs veh, BIVM-ERCC5 /// ERCC5 / RFU, ILF3 / Fold change vs veh, ILF3 / RFU 11762660_at / Fold change /veh 11762660_at / RFU VCAN (11757783_s_at) / Fold change /veh VCAN (11757783_s_at) / RFU DDX43 (11728927_at) / Fold change /veh DDX43 (11728927_at) / RFU KRT8 (11758188_x_at) / Fold change /veh KRT8 (11758188_x_at) / RFU NKD1 (11759106_at) / Fold change /veh NKD1 (11759106_at) / RFU SRD5A1 (11742802_a_at) / Fold change /veh SRD5A1 (11742802_a_at) / RFU TPSAB1 /// TPSB2 (11721975_s_at) / Fold change /veh TPSAB1 /// TPSB2 (11721975_s_at) / RFU GSTM3 (11746129_a_at) / Fold change /veh GSTM3 (11746129_a_at) / RFU IL23R (11737362_x_at) / Fold change /veh IL23R (11737362_x_at) / RFU TMEM51 (11727254_a_at) / Fold change /veh TMEM51 (11727254_a_at) / RFU PIWIL2 (11732686_x_at) / Fold change /veh PIWIL2 (11732686_x_at) / RFU ORM1 (11744905_x_at) / Fold change /veh ORM1 (11744905_x_at) / RFU CCDC152 (11743942_at) / Fold change /veh CCDC152 (11743942_at) / RFU ECM1 (11717891_a_at) / Fold change /veh ECM1 (11717891_a_at) / RFU IL23R (11748794_a_at) / Fold change /veh IL23R (11748794_a_at) / RFU TNFAIP8L3 (11732012_x_at) / Fold change /veh TNFAIP8L3 (11732012_x_at) / RFU MBOAT4 (11741988_at) / Fold change /veh MBOAT4 (11741988_at) / RFU 11764193_at / Fold change /veh 11764193_at / RFU TMEM53 (11763286_at) / Fold change /veh TMEM53 (11763286_at) / RFU MAGEB2 (11727129_at) / Fold change /veh MAGEB2 (11727129_at) / RFU TMEM200A (11744735_a_at) / Fold change /veh TMEM200A (11744735_a_at) / RFU CCDC152 (11751479_a_at) / Fold change /veh CCDC152 (11751479_a_at) / RFU FAM211A (11726209_a_at) / Fold change /veh FAM211A (11726209_a_at) / RFU RGS16 (11746705_a_at) / Fold change /veh RGS16 (11746705_a_at) / RFU VCAN (11755009_s_at) / Fold change /veh VCAN (11755009_s_at) / RFU RHOB (11743442_s_at) / Fold change /veh RHOB (11743442_s_at) / RFU RGS16 (11720943_a_at) / Fold change /veh RGS16 (11720943_a_at) / RFU RGS16 (11720944_at) / Fold change /veh RGS16 (11720944_at) / RFU, VPS4B / Fold change vs veh, VPS4B / RFU, CREB1 / Fold change vs veh, CREB1 / RFU, DNAJC13 / Fold change vs veh, DNAJC13 / RFU, GNAQ / Fold change vs veh, GNAQ / RFU, CDK5R1 / Fold change vs veh, CDK5R1 / RFU, ZRANB3 / Fold change vs veh, ZRANB3 / RFU, CUL4A / Fold change vs veh, CUL4A / RFU, CCNY / Fold change vs veh, CCNY / RFU, UFL1 / Fold change vs veh, UFL1 / RFU, COG3 / Fold change vs veh, COG3 / RFU, DIAPH2 / Fold change vs veh, DIAPH2 / RFU, SKA2 / Fold change vs veh, SKA2 / RFU, AFF3 / Fold change vs veh, AFF3 / RFU, LMF1 / Fold change vs veh, LMF1 / RFU, IPO11 / Fold change vs veh, IPO11 / RFU, DFFB / Fold change vs veh, DFFB / RFU, FOXP1 / Fold change vs veh, FOXP1 / RFU, CARD8 / Fold change vs veh, CARD8 / RFU, STRN3 / Fold change vs veh, STRN3 / RFU, ADK / Fold change vs veh, ADK / RFU, RASSF2 / Fold change vs veh, RASSF2 / RFU, WIPF1 / Fold change vs veh, WIPF1 / RFU, LARP1B / Fold change vs veh, LARP1B / RFU, RASA1 / Fold change vs veh, RASA1 / RFU, RB1 / Fold change vs veh, RB1 / RFU, PPFIA1 / Fold change vs veh, PPFIA1 / RFU, MAT2A / Fold change vs veh, MAT2A / RFU, CCT5 / Fold change vs veh, CCT5 / RFU, WDR92 / Fold change vs veh, WDR92 / RFU, CUX1 / Fold change vs veh, CUX1 / RFU, TTC7A / Fold change vs veh, TTC7A / RFU, TMEM135 / Fold change vs veh, TMEM135 / RFU, DEPTOR / Fold change vs veh, DEPTOR / RFU, CPM / Fold change vs veh, CPM / RFU, DNAJB6 / Fold change vs veh, DNAJB6 / RFU, CACNA2D3 / Fold change vs veh, CACNA2D3 / RFU, DTX4 / Fold change vs veh, DTX4 / RFU, TFCP2 / Fold change vs veh, TFCP2 / RFU, GMCL1 /// GMCL1P1 / Fold change vs veh, GMCL1 /// GMCL1P1 / RFU, AEBP2 / Fold change vs veh, AEBP2 / RFU, SNHG1 /// SNORD22 /// SNORD25 /// SNORD26 /// SNORD27 /// SNORD28 /// SNORD29 /// SNORD31 / Fold change vs veh, SNHG1 /// SNORD22 /// SNORD25 /// SNORD26 /// SNORD27 /// SNORD28 /// SNORD29 /// SNORD31 / Fold change (Aza/veh), C12orf56 (ProbeSet 11735607_a_at) / Fold change (ACY-1035/veh), C12orf56 (ProbeSet 11735607_a_at) / Fold change (Aza/veh), FGFR1OP (ProbeSet 11751329_s_at) / Fold change (ACY-1035/veh), FGFR1OP (ProbeSet 11751329_s_at) / Fold change (Aza/veh), VPS36 (ProbeSet 11739960_a_at) / Fold change (ACY-1035/veh), VPS36 (ProbeSet 11739960_a_at) / RFU SYPL1 (11715823_x_at) / Fold change /veh SYPL1 (11715823_x_at) / RFU IGFBP7 (11715501_s_at) / Fold change /veh IGFBP7 (11715501_s_at) / RFU REEP3 (11722064_at) / Fold change /veh REEP3 (11722064_at) / RFU IGLL1 (11728026_x_at) / Fold change /veh IGLL1 (11728026_x_at): dose or concentration left out as unconfirmed
Settings: MV-4-11 cells, 48 hours

Nc1ncn([C@@H]2O[C@H](CO)[C@@H](O)[C@H]2O)c(=O)n1 [azacitidine]
Fold change /veh TMEM136 (11760407_x_at): 1.19

From paper PMC5218480 (PLoS ONE, 2017)
